Results taken from US7723527B2 (Janssen Pharmaceutica NV, priority 2003, dated 2010).

Target: T1, human histamine H4 receptor (Homo sapiens, UniProt Q9H3N8)
T1 construct: expressed in transfected cells; host or cells: SK-N-MC cells or COS7 cells, transiently transfected; cell membranes used
Assay: Binding assay on recombinant human histamine H4 receptor (3H-histamine displacement)
Settings: competition binding with 3H-histamine; membranes of SK-N-MC or COS7 cells expressing human H4 receptor; Cheng-Prusoff, KD 5 nM, ligand 5 nM
Method in brief: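 Membranes from SK-N-MC or COS7 cells transiently transfected with human H4R, incubated with ^3H-histamine (5-70 nM) at room temperature for 45 min, nonspecific binding with 10,000 nM histamine. Filtration and scintillation counting; compound affinity from displacement of ^3H-ligand across varying concentrations.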

T1 sequence (Q9H3N8 whole entry): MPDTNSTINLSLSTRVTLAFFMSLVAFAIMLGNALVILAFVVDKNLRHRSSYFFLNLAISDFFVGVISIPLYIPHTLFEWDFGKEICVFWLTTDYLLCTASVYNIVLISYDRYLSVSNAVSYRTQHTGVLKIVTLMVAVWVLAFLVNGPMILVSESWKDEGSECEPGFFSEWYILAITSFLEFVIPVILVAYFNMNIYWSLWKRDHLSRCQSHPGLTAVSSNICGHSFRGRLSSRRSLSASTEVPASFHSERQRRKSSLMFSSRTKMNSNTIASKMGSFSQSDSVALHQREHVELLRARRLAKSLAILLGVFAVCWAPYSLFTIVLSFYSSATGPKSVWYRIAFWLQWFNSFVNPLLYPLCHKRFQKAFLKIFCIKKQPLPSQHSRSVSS

Compound	Ki [nM]
Cc1c(F)ccc2[nH]c(-c3ccnc(OCCCCC4CCN(C)CC4)c3)nc12 [Example 147, 5-Fluoro-4-methyl-2-{2-[4-(1-methyl-piperidin-4-yl)-butoxy]-pyridin-4-yl}-1H-benzoimidazole]	8
CN1CCC(CCCCOc2cc(-c3nc4c(Cl)cccc4[nH]3)ccn2)CC1 [Example 148, 4-Chloro-2-{2-[4-(1-methyl-piperidin-4-yl)-butoxy]-pyridin-4-yl}-1H-benzoimidazole]	17
Cc1ccc2[nH]c(-c3ccnc(OCCCCC4CCN(C)CC4)c3)nc2c1C [Example 149, 4,5-Dimethyl-2-{2-[4-(1-methyl-piperidin-4-yl)-butoxy]-pyridin-4-yl}-1H-benzoimidazole]	4
Cc1cc(Cl)cc2[nH]c(-c3ccnc(OCCCCC4CCN(C)CC4)c3)nc12 [Example 150, 6-Chloro-4-methyl-2-{2-[4-(1-methyl-piperidin-4-yl)-butoxy]-pyridin-4-yl}-1H-benzoimidazole]	19
Cc1c(Cl)ccc2[nH]c(-c3ccnc(OCCCCC4CCN(C)CC4)c3)nc12 [Example 151, 5-Chloro-4-methyl-2-{2-[4-(1-methyl-piperidin-4-yl)-butoxy]-pyridin-4-yl}-1H-benzoimidazole]	21
CC(C)(C)c1ccc2[nH]c(-c3ccnc(OCCCCC4CCNCC4)c3)nc2c1 [Example 152, 5-tert-Butyl-2-[2-(4-piperidin-4-yl-butoxy)-pyridin-4-yl]-1H-benzoimidazole]	117
Cc1cc(C)c2nc(-c3ccnc(OCCCCC4CCNCC4)c3)[nH]c2c1 [Example 153, 4,6-Dimethyl-2-[2-(4-piperidin-4-yl-butoxy)-pyridin-4-yl]-1H-benzoimidazole]	179
CCN1CCC(CCCCOc2cc(-c3nc4c(C)c(C)ccc4[nH]3)ccn2)CC1 [Example 154, 2-{2-[4-(1-Ethyl-piperidin-4-yl)-butoxy]-pyridin-4-yl}-4,5-dimethyl-1H-benzoimidazole]	111
Cc1cc(C)c2nc(-c3ccnc(OCCCCC4CCN(C)CC4)c3C)[nH]c2c1 [Example 155, 4,6-Dimethyl-2-{3-methyl-2-[4-(1-methyl-piperidin-4-yl)-butoxy]-pyridin-4-yl}-1H-benzoimidazole]	13
Cc1c(-c2nc3c(C)cccc3[nH]2)ccnc1OCCCCC1CCN(C)CC1 [Example 156, 4-Methyl-2-{3-methyl-2-[4-(1-methyl-piperidin-4-yl)-butoxy]-pyridin-4-yl}-1H-benzoimidazole]	20
Cc1c(-c2nc3c(C)cc(Cl)cc3[nH]2)ccnc1OCCCCC1CCN(C)CC1 [Example 157, 6-Chloro-4-methyl-2-{3-methyl-2-[4-(1-methyl-piperidin-4-yl)-butoxy]-pyridin-4-yl}-1H-benzoimidazole]	28
Cc1cccc2[nH]c(-c3ccnc(OCCCCC4CCN(C)CC4)c3Cl)nc12 [Example 158, 2-{3-Chloro-2-[4-(1-methyl-piperidin-4-yl)-butoxy]-pyridin-4-yl}-4-methyl-1H-benzoimidazole]	21
Cc1ccc2[nH]c(-c3ccnc(OCCCCC4CCN(C)CC4)c3Cl)nc2c1C [Example 159, 2-{3-Chloro-2-[4-(1-methyl-piperidin-4-yl)-butoxy]-pyridin-4-yl}-4,5-dimethyl-1H-benzoimidazole]	19
CN1CCC(CCCCOc2nccc(-c3nc4c(Cl)cccc4[nH]3)c2Cl)CC1 [Example 160, 4-Chloro-2-{3-chloro-2-[4-(1-methyl-piperidin-4-yl)-butoxy]-pyridin-4-yl}-1H-benzoimidazole]	53
Cc1c(F)ccc2[nH]c(-c3ccnc(OCCCCC4CCN(C)CC4)c3Cl)nc12 [Example 161, 2-{3-Chloro-2-[4-(1-methyl-piperidin-4-yl)-butoxy]-pyridin-4-yl}-5-fluoro-4-methyl-1H-benzoimidazole]	20
Cc1cc(C)c2nc(-c3ccnc(OCCCCC4CCN(C)CC4)c3Cl)[nH]c2c1 [Example 162, 2-{3-Chloro-2-[4-(1-methyl-piperidin-4-yl)-butoxy]-pyridin-4-yl}-4,6-dimethyl-1H-benzoimidazole]	15
